The target of experiment [1] is T1, stromelysin-1 catalytic domain (SCD) (Homo sapiens, UniProt P08254). The experiment in a line: Isothermal titration calorimetry of ligand binding. Background: In ITC the heat of successive injections is recorded.
Experiment [2] has as its target T1, stromelysin-1 catalytic domain (SCD). Conditions: in Tris–HCl, not corrected for proton transfer; cited from earlier work.

T1 sequence (P08254 100-272 limits assumed, species assumed): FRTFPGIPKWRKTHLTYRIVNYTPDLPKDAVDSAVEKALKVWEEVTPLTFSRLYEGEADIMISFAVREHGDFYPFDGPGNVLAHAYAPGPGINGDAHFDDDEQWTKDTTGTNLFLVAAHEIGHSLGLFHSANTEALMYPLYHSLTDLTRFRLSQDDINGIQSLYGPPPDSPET

With `CC(=O)NO` [Compound 8, acetohydroxamic acid], the “ΔG^0” value in experiment [1] (ITC, pH 7.5, 3% DMSO) was -2.4 ± 0.3 kcal/mol. Further, the ΔHbind0 in experiment [1] (ITC, pH 7.5, 3% DMSO, corrected for proton transfer) is -2.3 ± 0.2 kcal/mol. Moreover, the ΔCP in experiment [1] (from titrations at 15, 25 and 37 °C, by regression) is −67 ± 24 cal mol^−1 K^−1.

Consider `Oc1ccccc1` [phenol], for which, in experiment [2], the ΔHobs is -4.7 kcal/mol.

Values taken from paper PMC3763901 (Bioorganic & medicinal chemistry letters, 2012).
